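Cells were grown in 96-well plates and exposed to each compound for 48 hours at five concentrations; endpoints were interpolated linearly between bracketing concentrations, or set to the highest concentration if not reached. TGI marks complete inhibition of growth.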
Assays:
Test in all cases: NCI-60 cell line screen, 48 h
UACC-62 melanoma = system: UACC-62 melanoma
CAKI-1 renal = system: CAKI-1 renal
HOP-92 NSCLC = system: HOP-92 NSCLC
NCI/ADR-RES ovarian = system: NCI/ADR-RES ovarian
KM12 colon = system: KM12 colon
RPMI-8226 leukemia = system: RPMI-8226 leukemia
OVCAR-4 ovarian = system: OVCAR-4 ovarian
A549 NSCLC = system: A549 NSCLC
DU-145 prostate = system: DU-145 prostate
SK-MEL-28 melanoma = system: SK-MEL-28 melanoma
NCI-H226 lung = system: NCI-H226 lung
SK-OV-3 ovarian = system: SK-OV-3 ovarian
SF-268 CNS = system: SF-268 CNS
SN12C renal = system: SN12C renal
ACHN renal = system: ACHN renal
SK-MEL-2 melanoma = system: SK-MEL-2 melanoma
HCT-15 colon = system: HCT-15 colon
COLO 205 colon = system: COLO 205 colon
SK-MEL-5 melanoma = system: SK-MEL-5 melanoma
MDA-MB-231 breast = system: MDA-MB-231 breast

| SMILES | TGI (UACC-62 melanoma) [µM] | TGI (CAKI-1 renal) [µM] | TGI (HOP-92 NSCLC) [µM] | TGI (NCI/ADR-RES ovarian) [µM] | TGI (KM12 colon) [µM] | TGI (RPMI-8226 leukemia) [µM] | TGI (OVCAR-4 ovarian) [µM] | TGI (A549 NSCLC) [µM] | TGI (DU-145 prostate) [µM] | TGI (SK-MEL-28 melanoma) [µM] | TGI (NCI-H226 lung) [µM] | TGI (SK-OV-3 ovarian) [µM] | TGI (SF-268 CNS) [µM] | TGI (SN12C renal) [µM] | TGI (ACHN renal) [µM] | TGI (SK-MEL-2 melanoma) [µM] | TGI (HCT-15 colon) [µM] | TGI (COLO 205 colon) [µM] | TGI (SK-MEL-5 melanoma) [µM] | TGI (MDA-MB-231 breast) [µM] |
| --- | --- | --- | --- | --- | --- | --- | --- | --- | --- | --- | --- | --- | --- | --- | --- | --- | --- | --- | --- | --- |
| O=c1c2ccccc2nc2sc(/N=C/C=C/c3ccccc3)nn12 | > 100 | > 100 | > 100 | > 100 | > 100 | > 100 | > 100 | > 100 | > 100 | > 100 | > 100 | > 100 | > 100 | > 100 | > 100 | > 100 | > 100 | > 100 | > 100 | – |
| C[N+](C)(C)CCOP(=O)([O-])OCCNC(=O)c1ccc2ccccc2c1 | > 100 | > 100 | – | > 100 | > 100 | > 100 | – | > 100 | > 100 | > 100 | > 100 | > 100 | > 100 | > 100 | > 100 | – | > 100 | > 100 | > 100 | > 100 |
| COC(=O)c1ccc(/C=C2\Oc3cc(O)ccc3C2=O)cc1 | > 100 | > 100 | – | > 100 | > 100 | > 100 | > 100 | > 100 | > 100 | > 100 | > 100 | > 100 | > 100 | > 100 | > 100 | – | > 100 | > 100 | > 100 | > 100 |
| O=c1oc2c/c(=C\c3ccccn3)c(=O)c3cccc1c3-2 | > 100 | > 100 | > 100 | > 100 | > 100 | > 100 | > 100 | – | > 100 | > 100 | > 100 | > 100 | > 100 | > 100 | > 100 | – | > 100 | > 100 | > 100 | > 100 |
| CCOC(=O)CC(=O)CSc1c(-c2ccccc2)c(=O)n(-c2ccccc2)c(=S)n1-c1ccccc1 | > 100 | > 100 | > 100 | > 100 | > 100 | – | > 100 | > 100 | > 100 | > 100 | > 100 | > 100 | > 100 | > 100 | > 100 | – | > 100 | > 100 | – | > 100 |
| O=C(NNC(=O)c1ccccc1O)c1ccco1 | > 100 | > 100 | – | > 100 | > 100 | > 100 | > 100 | > 100 | > 100 | > 100 | > 100 | > 100 | > 100 | > 100 | – | > 100 | > 100 | > 100 | > 100 | > 100 |
| Cc1ccc(S(=O)(=O)Oc2nc3nc4ccccc4nc3nc2OS(=O)(=O)c2ccc(C)cc2)cc1 | > 100 | > 100 | – | > 100 | > 100 | > 100 | – | > 100 | > 100 | > 100 | > 100 | > 100 | > 100 | > 100 | > 100 | > 100 | > 100 | > 100 | > 100 | > 100 |
| O=C(NCCCNCCCCNCCCNC(=O)c1cc(-c2ccccc2)nc2ccccc12)c1cc(-c2ccccc2)nc2ccccc12 | 6.77 | 36.3 | 4.36 | 74.2 | – | – | > 24.8 | 4.88 | > 59.1 | 3.3 | – | 4.85 | – | 7.88 | 42.3 | – | 44.1 | – | 26.3 | > 100 |
| O=c1c2n[nH]nc2nc2n1CC(c1ccccc1)S2 (stereo not given) | > 100 | 77.6 | – | > 100 | > 100 | > 100 | > 100 | > 100 | > 100 | > 100 | > 100 | > 100 | > 100 | > 100 | > 100 | – | > 100 | > 100 | > 100 | > 100 |
| Cc1ccc(S(=O)(=O)N/N=C2\CC(C)OC3=C2CCCCCC3)cc1 (stereo not given) | 30.6 | 44.6 | 36.7 | 44.7 | 37.4 | 82.5 | 35.6 | 34.4 | 37.6 | 39.3 | 39 | 62.8 | 38.4 | 34.4 | 32.8 | – | – | 37.1 | 31.9 | 39.4 |

— PubChem BioAssay (NCI)
